Tests used:
[1] = test system: Respiratory syncytial virus recombinant with luciferase (RSV-Luc5); assay: microbe, parasite or virus in culture; format: cell-based; details: human respiratory syncytial virus, NHBE, 72 h, read-out: RSV NHBE EC50 (nM)
[2] = test system: SARS Coronavirus 2 recombinant with NanoLuc (SARS-CoV2-NLuc); assay: organism not typed; format: cell-based; details: 48 h
[3] = in vitro; format: cell-based; details: human
Method: Cytotoxicity of the compounds was determined in uninfected cells using the cell viability reagent in a similar fashion as described before for other cell types (Cihlar et al., Antimicrob Agents Chemother. 2008, 52(2):655-65). HEp-2 (1.5×10^3 cells/well) and MT-4 (2×10^3 cells/well) cells were plated in 384-well plates and incubated with the appropriate medium containing 3-fold serially diluted compound ranging from 15 nM to 100,000 nM. Cells were cultured for 4-5 days at 37° C. Following the incubation, the cells were allowed to equilibrate to 25° C., and cell viability was determined by adding Cell-Titer Glo viability reagent. The mixture was incubated for 10 min, and the luminescence signal was quantified using an Envision plate reader. Untreated cell and cells treated at 2 μM puromycin (Sigma, St. Louis, MO) serve as […] cell viability control, respectively. The percent of cell viability was calculated for each tested compound concentration relative to the 0% and 100% controls and the CC50 value was determined by non-linear regression as a compound concentration reducing the cell viability by […].

[4] = in vitro; format: in vitro ADME; details: human, s9, pH 7.4
Method: Duplicate aliquots of test compound or positive control substrate (GS-7340) were added to PMSF-free Intestinal S9 fractions diluted with 100 mM phosphate buffered saline, pH 7.4, to obtain a protein concentration of 1.0 mg/mL. The S9 metabolic reactions were initiated by the addition of the substrates to the S9 reaction mixture to a final concentration of 2 μM. At 0, 10, 20, 30, 60 and 120 min, 25 μL aliquots of the reaction mixture were transferred to plates containing 225 μl of IS/Q solution. After quenching, the plates were centrifuged at 3000×g for 30 minutes, and 150 μL aliquots of each supernatant were diluted with 150 μL water. Aliquots (10 μL) of the diluted supernatant were analyzed on a Thermo Q-Exactive mass spectrometer as described below. Quantification of test compounds and controls was performed by analyte/internal standard peak area ratio (PAR) values measured on a Thermo Q-Exactive mass spectrometer coupled to a Dionex UltiMate 3000 HPLC with a Leap Technologies HTC PAL autosampler. The column used was a Thermo Hypersil GOLD (1.9 μm particle size, 2.1×50 mm). Mobile phase A consisted of […] formic acid in water. Mobile phase B consisted of 0.1% (v/v) formic acid in acetonitrile. Elution of analytes was achieved by a series of linear gradients of acetonitrile in water containing 0.1% (v/v) formic acid. The mass spectrometer was calibrated on a weekly basis and mass tolerance of 5 ppm was used.

[5] = in vitro; format: in vitro ADME; details: human, s9, pH 7.4; remark: listed apart in the source
Method: Duplicate aliquots of test compound or positive control substrate (GS-7340) were added to S9 stock diluted with 100 mM potassium phosphate buffer, pH 7.4, to obtain a protein concentration of 2.4 mg/mL. The S9 metabolic reactions were initiated by the addition of the substrates to the S9 reaction mixture to a final concentration of 2 μM. At 2, 12, 25, 45, 65 and 90 min, 25 μL aliquots of the reaction mixture were transferred to plates containing 225 μl of IS/Q solution. After quenching, the plates were centrifuged at 3000×g for 30 minutes, and 150 μL aliquots of each supernatant were diluted with 150 μL water. Aliquots (10 μL) of the diluted supernatant were analyzed on a Thermo Q-Exactive mass spectrometer as described below. Quantification of test compounds and controls was performed by analyte/internal standard peak area ratio (PAR) values measured on a Thermo Q-Exactive mass spectrometer coupled to a Dionex UltiMate 3000 HPLC with a Leap Technologies HTC PAL autosampler. The column used was a Thermo Hypersil GOLD (1.9 μm particle size, 2.1×50 mm). Mobile phase A consisted of […] formic acid in water. Mobile phase B consisted of 0.1% (v/v) formic acid in acetonitrile. Elution of analytes was achieved by a series of linear gradients of acetonitrile in water containing 0.1% (v/v) formic acid. The mass spectrometer was calibrated on a weekly basis and mass tolerance of 5 ppm was used.

[6] = format: in vitro ADME; details: 2 μM
Method: Duplicate aliquots of plasma were warmed to 37° C. and the metabolic reactions initiated by the addition of test compound (6 μL of 0.1 mM DMSO stock) or plasma stability standard (GS-7340) to obtain a final substrate concentration of 2 μM. At 0.05, 0.5, 1, 2, 3 and 4 hr, 25 μL aliquots of the reaction mixture were transferred to plates containing 225 μl of IS/Q quenching solution. After quenching, the plates were centrifuged at 3000×g for 30 minutes, and 150 μL supernatant was diluted with 150 μL water. Aliquots (10 μL) of the diluted supernatant were analyzed on a Thermo Q-Exactive mass spectrometer as described below. Quantification of test compounds and controls was performed by analyte/internal standard peak area ratio (PAR) values measured on a Thermo Q-Exactive mass spectrometer coupled to a Dionex UltiMate 3000 HPLC with a Leap Technologies HTC PAL autosampler. The column used was a Thermo Hypersil GOLD (1.9 μm particle size, 2.1×50 mm). Mobile phase A consisted of […] formic acid in water. Mobile phase B consisted of 0.1% (v/v) formic acid in acetonitrile. Elution of analytes was achieved by a series of linear gradients of acetonitrile in water containing 0.1% (v/v) formic acid. The mass spectrometer was calibrated on a weekly basis and mass tolerance of 5 ppm was used.

[7] = test system: Caco-2 cells (clone C2BBel); assay: CACO-2 permeability; format: in vitro ADME; details: donor pH 6.5, receiver pH 7.4; for DM Caco2 A to B: forward (A to B); for DM Caco2 B to A: reverse (B to A)
Method: Pre-plated Caco-2 cells (clone C2BBel) were obtained from Sigma-Aldrich, Inc. (Atlanta, GA). Cell monolayers were grown to confluence on collagen-coated, microporous, polycarbonate membranes in 24-well transwell plates for 21 days. The permeability assay buffer in donor wells was Hanks' balanced salt solution (HBSS) containing 10 mM HEPES and 15 mM glucose at a pH of 6.5 containing 200 μM BNPP. The receiver wells used HBSS buffer containing 10 mM HEPES and 15 mM glucose at a pH of 7.4 and supplemented with 1% BSA. After an initial equilibration with transport buffer, TEER values were read to test membrane integrity. The experiment was started by the addition of buffers containing test compounds, 200 μl and 1000 μl in the apical and basolateral chamber, respectively. At 0- and 2-hour post dose, 10 μL was sampled from donor compartment and was immediately diluted in 190 μL of 20% methanol. At 1 and 2 hours post dose, 100 μl of solution was taken from the receiver compartments and was immediately diluted in 100 μl of 20% methanol. Removed buffer was replaced with fresh buffer and a correction was applied to all calculations for the removed material. Each compound was tested in 2 separate replicate wells for each condition. All samples were then extracted with 400 μl 100% acetonitrile with internal standard to precipitate protein. Cells were dosed on the apical or basolateral side to determine forward (A to B) and reverse (B to A) permeability. To test for non-specific binding and compound instability, the total amount of drug was quantitated at the end of the experiment and compared to the material present in the original dosing solution as a percent recovery. Formation of the parent compound (GS-441524; Reference Compound A) was monitored in assay wells dosed with the prodrug. Samples were analyzed by LC-MS/MS.
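Wherever CC50 is given: uninfected MT-4 cells over 4-5 days by CellTiter-Glo.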

## COC(=O)[C@H]1COC(=O)N1C(=O)OC[C@H]1O[C@@](C#N)(c2ccc3c(N)ncnn23)[C@H](O)[C@@H]1O [Compound 5, O3-[[(2R,3S,4R,5R)-5-(4-aminopyrrolo[2,1-f][1,2,4]triazin-7-yl)-5-cyano-3,4-dihydroxy-tetrahydrofuran-2-yl]methyl]04-methyl (4R)-2-oxooxazolidine-3,4-dicarboxylate]
[1]
  EC50: 20100 nM
[2]
  EC50: 20.4 µM
[3]
  CC50: > 50 µM
[4]
  half-life at 2 μM: 83.4 min
[5]
  half-life at 2 μM: 256 min
[6]
  STA Human Plasma 37: 77.22
[7]
  DM Caco2 A to B: 0.04
  DM Caco2 B to A: 0.08

## CC(C)OC(=O)[C@@H](NC(=O)OC[C@H]1O[C@@](C#N)(c2ccc3c(N)ncnn23)[C@H](O)[C@@H]1O)C(C)C [Compound 7, isopropyl-((((2R,3S,4R,5R)-5-(4-aminopyrrolo[2,1-f][1,2,4]triazin-7-yl)-5-cyano-3,4-dihydroxytetrahydrofuran-2-yl)methoxy)carbonyl)-L-valinate]
[1]
  EC50: > 50000 nM
[2]
  EC50: > 50 µM
[3]
  CC50: > 50 µM
[4]
  half-life at 2 μM: ≥ 792 min
[5]
  half-life at 2 μM: ≥ 592 min
[6]
  STA Human Plasma 37: 1303.4
[7]
  DM Caco2 A to B: 0.115
  DM Caco2 B to A: 6.245

## N#C[C@@]1(c2ccc3c(N)ncnn23)O[C@H](COC(=O)N2CCCCCCC2)[C@@H](O)[C@H]1O [Compound 9, [(2R,3S,4R,5R)-5-(4-aminopyrrolo[2,1-f][1,2,4]triazin-7-yl)-5-cyano-3,4-dihydroxy-tetrahydrofuran-2-yl]methyl azocane-1-carboxylate]
[1]
  EC50: 10300 nM
[2]
  EC50: > 50 µM
[3]
  CC50: > 50 µM
[4]
  half-life at 2 μM: 400 min
[5]
  half-life at 2 μM: 526 min
[6]
  STA Human Plasma 37: 1584
[7]
  DM Caco2 A to B: 0.47
  DM Caco2 B to A: 6.67

## N#C[C@@]1(c2ccc3c(N)ncnn23)O[C@H](COC(=O)SC2CCCC2)[C@@H](O)[C@H]1O [Compound 16, [(2R,3S,4R,5R)-5-(4-aminopyrrolo[2,1-f][1,2,4]triazin-7-yl)-5-cyano-3,4-dihydroxy-tetrahydrofuran-2-yl]methyl cyclopentylsulfanylformate]
[1]
  EC50: 2810 nM
[2]
  EC50: 8.75 µM
[3]
  CC50: 49.9 µM
[4]
  half-life at 2 μM: 3.4 min
[5]
  half-life at 2 μM: 6.2 min

## CC(=O)O[C@H]1[C@@H](OC(C)=O)[C@](C#N)(c2ccc3c(N)ncnn23)O[C@@H]1COC(=O)NC(C)C [Compound 18, [(2R,3R,4R,5R)-4-acetoxy-5-(4-aminopyrrolo[2,1-f][1,2,4]triazin-7-yl)-5-cyano-2-(isopropylcarbamoyloxymethyl)tetrahydrofuran-3-yl]acetate]
[1]
  EC50: > 50000 nM
[2]
  EC50: > 50 µM
[3]
  CC50: > 50 µM
[4]
  half-life at 2 μM: 0.581 min
[6]
  STA Human Plasma 37: 16.014
[7]
  DM Caco2 A to B: 0.8
  DM Caco2 B to A: 6.91

## CCCSC(=O)OC[C@H]1O[C@@](C#N)(c2ccc3c(N)ncnn23)[C@H](OC(C)=O)[C@@H]1OC(C)=O [Compound 22, [(2R,3R,4R,5R)-4-acetoxy-5-(4-aminopyrrolo[2,1-f][1,2,4]triazin-7-yl)-5-cyano-2-(propylsulfanylcarbonyloxymethyl)tetrahydrofuran-3-yl]acetate]
[1]
  EC50: 3320 nM
[2]
  EC50: 9.83 µM
[3]
  CC50: > 50 µM
[4]
  half-life at 2 μM: 1.59 min
[5]
  half-life at 2 μM: ≤ 2 min

## CCSC(=O)OC[C@H]1O[C@@](C#N)(c2ccc3c(N)ncnn23)[C@H](OC(C)=O)[C@@H]1OC(C)=O [Compound 23, [(2R,3R,4R,5R)-4-acetoxy-5-(4-aminopyrrolo[2,1-f][1,2,4]triazin-7-yl)-5-cyano-2-(ethylsulfanylcarbonyloxymethyl)tetrahydrofuran-3-yl]acetate]
[1]
  EC50: 3810 nM
[2]
  EC50: 12.4 µM
[3]
  CC50: > 50 µM
[4]
  half-life at 2 μM: 0.885 min
[5]
  half-life at 2 μM: ≤ 2 min

## CC(=O)O[C@H]1[C@@H](OC(C)=O)[C@](C#N)(c2ccc3c(N)ncnn23)O[C@@H]1COC(=O)SC(C)(C)C [Compound 24, [(2R,3R,4R,5R)-4-acetoxy-5-(4-aminopyrrolo[2,1-f][1,2,4]triazin-7-yl)-2-(tert-butylsulfanylcarbonyloxymethyl)-5-cyano-tetrahydrofuran-3-yl]acetate]
[1]
  EC50: 19400 nM
[2]
  EC50: > 50 µM
[3]
  CC50: > 50 µM
[4]
  half-life at 2 μM: 0.921 min
[5]
  half-life at 2 μM: ≤ 2 min

## CC(=O)O[C@H]1[C@@H](OC(C)=O)[C@](C#N)(c2ccc3c(N)ncnn23)O[C@@H]1COC(=O)SC1CCCC1 [Compound 25, [(2R,3R,4R,5R)-4-acetoxy-5-(4-aminopyrrolo[2,1-f][1,2,4]triazin-7-yl)-5-cyano-2-(cyclopentylsulfanylcarbonyloxymethyl)tetrahydrofuran-3-yl]acetate]
[1]
  EC50: 1250 nM
[2]
  EC50: 4.02 µM
[3]
  CC50: 32.5 µM
[4]
  half-life at 2 μM: 1.14 min
[5]
  half-life at 2 μM: ≤ 2 min
[6]
  STA Human Plasma 37: 72.169

— patent US20250114369A1, “COMPOUNDS AND METHODS FOR TREATMENT OF VIRAL INFECTIONS” (Gilead Sciences, Inc., priority 2023, published 2025)
